Measured values as given in patent publication US9096586B2, “Therapeutic compounds” (Gilead Sciences, Inc., priority 2012, dated 2015).

Test system: HIV-IIIb
Assay: Test A: Antiviral Assays in MT4 Cells
Assay type: cell-based
Conditions: Human immunodeficiency virus 1, IIIB, MT4, 120 h, MT-4 cells infected with HIV-IIIb (0.004 m.o.i.), 5 days incubation, CellTiter-Glo readout
Protocol: Test A: Antiviral Assays in MT4 Cells
For the antiviral assay utilizing MT-4 cells, 0.4 μL of […] test concentration of 3-fold serially diluted compound in DMSO was added to 40 μL of cell growth medium (RPMI 1640, 10% FBS, 1% penicilline/Streptomycine, 1% L-Glutamine, 1% HEPES) in each well of 384-well assay plates (10 concentrations) in quadruplicate.
1 mL aliquots of 2×10e6 MT-4 cells are pre-infected for 1 and 3 hrs respectively, @ 37° C. with 25 uL (MT4) or of either cell growth medium (mock-infected) or a fresh 1:250 dilution of an HIV-IIIb concentrated ABI stock (0.004 m.o.i. for MT4 cells). Infected and uninfected cells are diluted in cell growth medium and 35 uL of 2000 (for MT4) cells is added to each well of the assay plates.
Assay plates were then incubated in a 37° C. incubator. After 5 days of incubation, 25 μl of 2× concentrated CellTiter-Glo™ Reagent (catalog #G7573, Promega Biosciences, Inc., Madison, Wis.) was added to each well of the assay plate. Cell lysis was carried out by incubating at room temperature for 2-3 min and then chemiluminescence was read using the Envision reader (PerkinElmer).
Accordingly, the compounds disclosed herein (e.g. compound of the invention) may be useful for treating the proliferation of the HIV virus, treating AIDS or delaying the onset of AIDS or ARC symptoms.

| SMILES | EC50 |
| --- | --- |
| Cc1cc2nc(-c3cnc4[nH]cc(C)c4c3)sc2c(-c2ccc(Cl)cc2)c1[C@](C)(OC(C)(C)C)C(=O)O [Compound 112, (S)-methyl 2-tert-butoxy-2-(7-(4-chlorophenyl)-5-methyl-2-(3-methyl-1H-pyrrolo[2,3-b]pyridin-5-yl)benzo[d]thiazol-6-yl)acetic acid] | 28 nM |
| Cc1cc2nc(N3CCC(Oc4ccccc4)C3)sc2c(-c2ccc(Cl)cc2)c1[C@H](OC(C)(C)C)C(=O)O (stereo partly drawn) [Compound 126, (2S)-2-tert-butoxy-2-(7-(4-chlorophenyl)-5-methyl-2-(3-phenoxypyrrolidin-1-yl)benzo[d]thiazol-6-yl)acetic acid] | 722 nM |
| Cc1cc2nc(-c3ccnc(-c4cnn(Cc5ccccc5)c4)c3)sc2c(-c2ccc(Cl)cc2)c1[C@H](OC(C)(C)C)C(=O)O [Compound 150] | 91 nM |
